The assay addresses T1, human PAD4 (Homo sapiens, UniProt Q9UM07).
T1 construct: human PAD4 (NM_012387), A2-P663, was PCR amplified; His-SUMO (N, cleaved yes); made in house; host or cells: E. coli BL21(DE3)
Briefly: In vitro PAD4 BAEE biochemical assay. The conditions noted are these: BAEE substrate 3 mM, 5 nM PAD4, 2 mM calcium chloride; geometric mean of multiple experiments. In outline: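 Fluorescence read-out (ex 405/em 535 nm) of isoindole formed from ammonia, o-phthalaldehyde and DTT after EDTA stop. Reaction: 5 nM PAD4, 2 mM CaCl2, 3 mM BAEE, 2 h, 25 °C, after 30 min enzyme–compound preincubation. Normalised to BB-Cl-Amidine (50 µM) and DMSO controls.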

pIC50: −log10 of the molar value.

One may read the pIC50 as −log10 of the IC50, conventionally taken in molar units.

T1 sequence (Q9UM07 2-663): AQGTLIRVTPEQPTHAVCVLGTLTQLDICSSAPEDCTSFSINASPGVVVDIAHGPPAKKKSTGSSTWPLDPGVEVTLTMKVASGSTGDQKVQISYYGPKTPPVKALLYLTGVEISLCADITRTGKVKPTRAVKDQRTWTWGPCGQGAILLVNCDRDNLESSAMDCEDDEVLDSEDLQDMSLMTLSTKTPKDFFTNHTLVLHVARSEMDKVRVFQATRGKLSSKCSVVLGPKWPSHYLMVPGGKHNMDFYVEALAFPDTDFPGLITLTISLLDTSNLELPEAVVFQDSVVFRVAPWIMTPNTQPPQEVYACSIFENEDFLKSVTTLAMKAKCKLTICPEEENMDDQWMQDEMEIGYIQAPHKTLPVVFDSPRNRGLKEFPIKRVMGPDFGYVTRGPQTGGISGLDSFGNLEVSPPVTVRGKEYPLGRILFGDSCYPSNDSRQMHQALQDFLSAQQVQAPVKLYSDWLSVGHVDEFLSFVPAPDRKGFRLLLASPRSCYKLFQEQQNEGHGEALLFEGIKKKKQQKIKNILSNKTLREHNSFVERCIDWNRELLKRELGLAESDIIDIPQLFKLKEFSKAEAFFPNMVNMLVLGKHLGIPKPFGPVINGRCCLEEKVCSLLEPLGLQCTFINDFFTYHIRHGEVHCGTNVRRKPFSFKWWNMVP

With `COc1cc(C(=O)N2C[C@H](N)[C@@H]3CC[C@H]2C3)cc2nc(-c3cc4ccc5nc4n3CCCCCc3nc(C(F)(F)F)ccc3C(=O)N[C@@H]5C)n(C3CC3)c12` [Example 847, (2~{R})-17-[5-[(1~{S},4~{R}, 5~{R})-4-amino-2-azabicyclo [3.2.1]octane-2-carbonyl]-1-cyclopropyl-7-methoxy-benzimidazol-2-yl]-2-methyl-8-(trifluoromethyl)-3,9,16,22-tetrazatetracyclo[14.5.2.0^ {5,10}.0^{19,23}]tricosa-1(22),5(10),6,8,17,19(23),20-heptaen-4-one], the negative logarithm of the IC50 (pIC50) was 7.09.

As for `COc1cc(C(=O)N2[C@H]3CC[C@@H]2[C@H](N)[C@H](OC)C3)cc2nc(-c3cc4ccc5nc4n3CC(F)(F)CCC[C@@H]3C[C@H]3C(=O)N[C@@H]5C)n(C)c12` [Example 726, (2~{R},5~{R},7~{R})-14-[5-[(1~{R},2~{S},3~{R}, 5~{S})-2-amino-3-methoxy-8-azabicyclo[3.2.1]octane-8-carbonyl]-7-methoxy-1-methyl-benzimidazol-2-yl]-11,11-difluoro-2-methyl-3,13,19-triazatetracyclo[11.5.2.0^ {5,7}.0^{16,20}] icosa-1(19),14,16(20), 17-tetraen-4-one], the negative logarithm of the IC50 (pIC50) was 7.64.

With `C[C@H]1NC(=O)c2ccc(C#Cc3ccccc3)nc2CCCCCn2c(-c3nc4cc(C(=O)N5C[C@H](N)[C@@H]6CC[C@H]5C6)cc(F)c4n3C3CC3)cc3ccc1nc32` [Example 820, (2˜{R})-17-[5-[(1˜{S},4˜{R},5˜{R})-4-amino-2-azabicyclo[3.2.1]octane-2-carbonyl]-1-cyclopropyl-7-fluoro-benzimidazol-2-yl]-2-methyl-8-(2-phenylethynyl)-3,9,16,22-tetrazatetracyclo[14.5.2.0^{5,10}.0^{19,23}]tricosa-1(21),5(10),6,8,17,19,22-heptaen-4-one], the pIC50 was 6.77.

As to `COc1cc(C(=O)N2CCC[C@@H](N)C2)cc2nc(-c3cc4ccc5nc4n3CCCCCCC(=O)Nc3ccncc3-5)n(C)c12` [Example 45, 17-[5-[(3~{R})-3-aminopiperidine-1-carbonyl]-7-methoxy-1-methyl-benzimidazol-2-yl]-4,8,16,22-tetrazatetracyclo[14.5.2.0^{2,7}.0^{19,23}] tricosa-1(22),2,4,6,17,19(23),20-heptaen-9-one], the pIC50 was 5.30.

Take `COc1cc(C(=O)N2CC[C@@H](OC)[C@@H](N)C2)cc2nc(-c3cc4ccc5nc4n3C[C@H]3C[C@H]3CCC[C@](C)(C(F)(F)F)C(=O)N[C@@H]5C)n(C)c12` [Example 370, (3~{S),5~{R},9~{S},12~{R})-18-[5-[(3~{S},4~{R})-3-amino-4-methoxy-piperidine-1-carbonyl]-7-methoxy-1-methyl-benzimidazol-2-yl]-9,12-dimethyl-9-(trifluoromethyl)-1,11,20-triazatetracyclo[11.5.2.0^{3,5}.0^{16,19}] icosa-13(20),14,16(19),17-tetraen-10-one]: the pIC50 was 6.79.

Regarding `C[C@H]1NC(=O)[C@@H]2C[C@H]2CCCC(F)(F)Cn2c(-c3nc4cc(C(=O)N5C[C@H](N)[C@@H]6CC[C@H]5C6)cc(F)c4n3[C@@H]3C[C@@H]3C(F)F)cc3ccc1nc32` [Example 756, (2~{R},5~{R},7~{R})-14-[5-[(1~{S},4~{R},5~{R})-4-amino-2-azabicyclo[3.2.1]octane-2-carbonyl]-1-[(1~{R},2~{S})-2-(difluoromethyl)cyclopropyl]-7-fluoro-benzimidazol-2-yl]-11,11-difluoro-2-methyl-3,13,19-triazatetracyclo [11.5.2.0^{5,7}.0^{16,20}] icosa-1(19),14,16(20),17-tetraen-4-one], the pIC50 is 7.51.

`COc1cc(C(=O)N2CC[C@@H](OC)[C@@H](N)C2)cc2nc(-c3cc4ccc5nc4n3CC(F)(F)CCCCC3(CC(F)(F)C3)C(=O)N[C@@H]5C)n(C)c12` [Example 821, (11~{R})-17-[5-[(3~{S),4~ {R})-3-amino-4-methoxy-piperidine-1-carbonyl]-7-methoxy-1-methyl-benzimidazol-2-yl]-1′,1′,3,3-tetrafluoro-11-methyl-spiro[1,10,19-triazatricyclo[10.5.2.0^ {15,18}]nonadeca-12 (19),13,15(18),16-tetraene-8,3′-cyclobutane]-9-one]: the pIC50 was 6.99.

`COc1cc(C(=O)N[C@H]2CNCC[C@@H]2F)cc2nc(-c3cc4ccc5nc4n3CCCCC[C@@]3(C)C[C@@H]3C(=O)N[C@@H]5C)n(C)c12` [Example 617, 2-[(2~{R},5~{S},7~{S})-2,7-dimethyl-4-oxo-3,13,19-triazatetracyclo[11.5.2.0^ {5,7}.0^{16,20}]icosa-1(19),14,16(20),17-tetraen-14-yl]-~{N}-[(3~ {S},4~{S})-4-fluoro-3-piperidyl]-7-methoxy-1-methyl-benzimidazole-5-carboxamide]: the pIC50 was 5.95.

As to `COc1cc(C(=O)N2C[C@H](N)[C@@H]3CC[C@H]2[C@H]3F)cc2nc(-c3cc4ccc5nc4n3CC(F)(F)CCC[C@@H]3C[C@H]3C(=O)N[C@@H]5C)n(C)c12` [Example 668, (2~{R},5~{R},7~{R})-14-[5-[(1~{S},4~{R},5~ {S},8~{S})-4-amino-8-fluoro-2-azabicyclo [3.2.1]octane-2-carbonyl]-7-methoxy-1-methyl-benzimidazol-2-yl]-11,11-difluoro-2-methyl-3,13,19-triazatetracyclo [11.5.2.0^{5,7}.0^{16,20}] icosa-1(19),14,16(20), 17-tetraen-4-one], the pIC50 was 7.66.

Take `COc1cc(C(=O)N2[C@H]3CC[C@@H]2[C@H](N)C3)cc2nc(-c3cc4ccc5nc4n3C[C@@H]3C[C@@H]3COCCC(=O)N[C@@H]5C)c(C)n12` (single isomer, unassigned) [Example 328, (3˜{R},5˜{S},12˜{R})-18-[7-[(1˜{R},2˜{R},4˜{S})-2-amino-7-azabicyclo[2.2.1]heptane-7-carbonyl]-5-methoxy-3-methyl-imidazo[1,2-a]pyridin-2-yl]-12-methyl-7-oxa-1,11,20-triazatetracyclo[11.5.2.0^{3,5}.0^{16,19}]icosa-13(20),14,16(19),17-tetraen-10-one]: the pIC50 is 7.60.

Turning to `COc1cc(C(=O)N2CC[C@@H](OC)[C@@H](N)C2)cc2nc(-c3cc4ccc5nc4n3CCCCC[C@@H]3C[C@@]3(C)C(=O)N[C@@H]5C)n(C)c12` [Example 583, (2~{R},5~{R},7~{R})-14-[5-[(3~{S),4~{R})-3-amino-4-methoxy-piperidine-1-carbonyl]-7-methoxy-1-methyl-benzimidazol-2-yl]-2,5-dimethyl-3,13,19-triazatetracyclo[11.5.2.0^ {5,7}.0^{16,20}]icosa-1(19), 14,16(20),17-tetraen-4-one], the pIC50 is 7.16.

`COc1cc(C(=O)N2[C@H]3CC[C@@H]2[C@H](N)C3)cc2nc(-c3cc4ccc5nc4n3CCCCCCCC(=O)N[C@@H]5C(F)(F)F)n(C)c12` [Example 258, (11~{S})-17-[5-[(1~{R},2~{R},4~{S})-2-amino-7-azabicyclo[2.2.1]heptane-7-carbonyl]-7-methoxy-1-methyl-benzimidazol-2-yl]-11-(trifluoromethyl)-1,10,19-triazatricyclo[10.5.2.0^{15,18}]nonadeca-12(19),13,15(18),16-tetraen-9-one]: the pIC50 was 7.41.

For the compound `COc1cc(C(=O)N2C[C@H](N)C[C@H](O)C2)cc2nc(-c3cc4ccc5nc4n3CCCCCCC(C)(C)C(=O)N[C@@H]5C)n(C)c12` [Example 536, (11~{R})-17-[5-[(3~{R},5~{S})-3-amino-5-hydroxy-piperidine-1-carbonyl]-7-methoxy-1-methyl-benzimidazol-2-yl]-8,8,11-trimethyl-1,10,19-triazatricyclo[10.5.2.0^ {15,18}]nonadeca-12(19), 13,15(18),16-tetraen-9-one], the pIC50 is 6.86.

For `COc1cc(C(=O)N2C[C@H](N)[C@@H]3CC[C@H]2C3)cc2nc(-c3cc4ccc5nc4n3CCCCCc3nc(C(F)F)ccc3C(=O)N[C@@H]5C)n(C3CC3)c12` [Example 819, (2~{R})-17-[5-[(1~{S},4~{R}, 5~{R})-4-amino-2-azabicyclo [3.2.1]octane-2-carbonyl]-1-cyclopropyl-7-methoxy-benzimidazol-2-yl]-8-(difluoromethyl)-2-methyl-3,9,16,22-tetrazatetracyclo[14.5.2.0^ {5,10}.0^{19,23}] tricosa-1(21),5(10),6,8,17, 19,22-heptaen-4-one], the pIC50 is 8.00.

Turning to `[2H]C1([2H])[C@H](N)[C@@H]2CC[C@@H](C2)N1C(=O)c1cc(F)c2c(c1)nc(-c1cc3ccc4nc3n1CCCCCc1nc(Cl)ccc1C(=O)N[C@@H]4C)n2C1CC1` [Example 764, (2~{R})-17-[5-[(1~{S},4~{R}, 5~{R})-4-amino-3,3-dideuterio-2-azabicyclo[3.2.1]octane-2-carbonyl]-1-cyclopropyl-7-fluoro-benzimidazol-2-yl]-8-chloro-2-methyl-3,9,16,22-tetrazatetracyclo[14.5.2.0^ {5,10).0^{19,23}]tricosa-1(22),5(10),6,8,17,19(23),20-heptaen-4-one], the pIC50 was 7.66.

`COc1cc(C(=O)N2CCC[C@@H](N)C2)cc2nc(-c3cc4ccc5nc4n3CCCCCCCC(=O)N[C@@H]5C(F)(F)F)n(C)c12` (single isomer, unassigned) [Example 235, (11˜{S})-17-[5-[(3˜{R})-3-aminopiperidine-1-carbonyl]-7-methoxy-1-methyl-benzimidazol-2-yl]-11-(trifluoromethyl)-1,10,19-triazatricyclo[10.5.2.0^{15,18}]nonadeca-12(19),13,15(18),16-tetraen-9-one]: the pIC50 was 6.95.

These data come from patent US11976083B2, “Inhibitors of peptidylarginine deiminases” (Gilead Sciences, Inc., priority 2020, dated 2024).
